Tests used:
Assay in all cases: relative viability (nuclei count vs DMSO), 5 days (fraction); higher = more cells survive
IPA-3 + Lapatinib = compound: C1=CC=C2C(=C1)C=CC(=C2SSC3=C(C=CC4=CC=CC=C43)O)O [IPA-3] + CS(=O)(=O)CCNCc1ccc(-c2ccc3ncnc(Nc4ccc(OCc5cccc(F)c5)c(Cl)c4)c3c2)o1 [Lapatinib] (partner 2 µM)
Procedure, shortened: (§1)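 Lung cancer cell lines were seeded in 1536-well plates and dosed by pin tool the next day, with either a single drug or a fixed anchor-drug dose combined with five library-drug doses (not always all listed) spaced in √10 steps. Five days later, one step fixed the cells and stained their nuclei (final 0.05% Triton X-100, 1% formaldehyde, 1 ug/ml Hoechst), and nuclei were counted on 4× images. Relative viability is the nuclei count in treated wells divided by the count in vehicle wells, and each value is the median of duplicate plates.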

Doramapimod + Trametinib = compound: Cc1ccc(-n2nc(C(C)(C)C)cc2NC(=O)Nc2ccc(OCCN3CCOCC3)c3ccccc23)cc1 [Doramapimod] + CC(=O)Nc1cccc(-n2c(=O)n(C3CC3)c(=O)c3c(Nc4ccc(I)cc4F)n(C)c(=O)c(C)c32)c1 [Trametinib] (partner 0.02 µM)
Procedure, shortened: as §1

Doramapimod + Dasatinib = compound: Cc1ccc(-n2nc(C(C)(C)C)cc2NC(=O)Nc2ccc(OCCN3CCOCC3)c3ccccc23)cc1 [Doramapimod] + Cc1nc(Nc2ncc(C(=O)Nc3c(C)cccc3Cl)s2)cc(N2CCN(CCO)CC2)n1 [Dasatinib] (partner 0.075 µM)
Procedure, shortened: as §1

Doramapimod + Lapatinib = compound: Cc1ccc(-n2nc(C(C)(C)C)cc2NC(=O)Nc2ccc(OCCN3CCOCC3)c3ccccc23)cc1 [Doramapimod] + CS(=O)(=O)CCNCc1ccc(-c2ccc3ncnc(Nc4ccc(OCc5cccc(F)c5)c(Cl)c4)c3c2)o1 [Lapatinib] (partner 2 µM)
Procedure, shortened: as §1

Cell Line | relative viability (IPA-3 + Lapatinib; first compound 0.2 µM) | relative viability (IPA-3 + Lapatinib; first compound 0.6325 µM) | relative viability (IPA-3 + Lapatinib; first compound 2 µM) | relative viability (IPA-3 + Lapatinib; first compound 6.325 µM) | relative viability (IPA-3 + Lapatinib; first compound 20 µM) | relative viability (Doramapimod + Trametinib; first compound 0.02 µM) | relative viability (Doramapimod + Trametinib; first compound 0.06325 µM) | relative viability (Doramapimod + Trametinib; first compound 0.2 µM) | relative viability (Doramapimod + Trametinib; first compound 0.6325 µM) | relative viability (Doramapimod + Trametinib; first compound 2 µM) | relative viability (Doramapimod + Dasatinib; first compound 0.02 µM) | relative viability (Doramapimod + Dasatinib; first compound 0.06325 µM) | relative viability (Doramapimod + Dasatinib; first compound 0.2 µM) | relative viability (Doramapimod + Dasatinib; first compound 0.6325 µM) | relative viability (Doramapimod + Dasatinib; first compound 2 µM) | relative viability (Doramapimod + Lapatinib; first compound 0.02 µM) | relative viability (Doramapimod + Lapatinib; first compound 0.06325 µM) | relative viability (Doramapimod + Lapatinib; first compound 0.2 µM) | relative viability (Doramapimod + Lapatinib; first compound 0.6325 µM) | relative viability (Doramapimod + Lapatinib; first compound 2 µM)
NCI-H650 | 1.22 | 0.955 | 0.802 | 0.857 | 1.3 | 0.963 | 0.977 | 0.988 | 1.05 | 0.978 | 0.517 | 0.535 | 0.571 | 0.586 | 0.431 | 1.03 | 0.938 | 1.43 | 0.921 | 0.844
NCI-H358 | 0.532 | 0.47 | 0.445 | 0.51 | 0.413 | 0.163 | 0.137 | 0.124 | 0.15 | 0.156 | 0.164 | 0.156 | 0.162 | 0.204 | 0.171 | 0.508 | 0.426 | 0.472 | 0.571 | 0.443
BEN | 0.749 | 0.673 | 0.832 | 0.735 | 0.677 | 0.908 | 0.924 | 1.11 | 0.737 | 0.924 | 0.34 | 0.349 | 0.317 | 0.345 | 0.273 | 0.728 | 0.687 | 0.746 | 0.475 | 0.717
SW 1573 | 1.17 | 1.09 | 1.03 | 1.06 | 1.06 | 0.524 | 0.429 | 0.451 | 0.452 | 0.514 | 0.461 | 0.394 | 0.588 | 0.685 | 0.411 | 0.982 | 0.939 | 0.897 | 1.04 | 1.2
SK-MES-1 | 0.524 | 0.431 | 0.487 | 0.423 | 0.449 | 0.55 | 0.56 | 0.477 | 0.519 | 0.483 | 0.374 | 0.406 | 0.413 | 0.41 | 0.33 | 0.455 | 0.453 | 0.389 | 0.451 | 0.376
NCI-H1755 | 1.11 | 0.988 | 1.05 | 1.06 | 1.17 | 0.849 | 0.887 | 0.751 | 0.761 | 0.714 | 0.458 | 0.438 | 0.369 | 0.4 | 0.344 | 0.6 | 1.04 | 1.05 | 1.08 | 1.03
NCI-H2023 | 0.91 | 0.711 | 0.774 | 0.925 | 0.832 | 0.493 | 0.447 | 0.489 | 0.634 | 0.548 | 0.601 | 0.521 | 0.533 | 0.645 | 0.512 | 0.79 | 0.636 | 0.78 | 0.105 | 0.807
LC-2-ad | 1.04 | 1 | 1.04 | 0.961 | 1.09 | 0.992 | 0.92 | 0.906 | 0.981 | 0.855 | 0.464 | 0.514 | 0.638 | 0.561 | 0.391 | 0.87 | 1.03 | 1.1 | 1.05 | 0.643
NCI-H1666 | 0.77 | 0.673 | 0.674 | 0.786 | 0.66 | 0.84 | 0.895 | 0.936 | 0.907 | 0.795 | 0.889 | 0.881 | 0.876 | 1.14 | 0.87 | 0.814 | 0.702 | 0.654 | 0.637 | 0.68
201T | 1.06 | 1.05 | 1.02 | 1.04 | 1.07 | 0.736 | 0.715 | 0.729 | 0.772 | 0.71 | 0.611 | 0.571 | 0.49 | 0.598 | 0.517 | 1.05 | 1.11 | 0.955 | 1.11 | 0.971
NCI-H2009 | 1.2 | 0.899 | 0.832 | 0.853 | 0.577 | 0.285 | 0.247 | 0.351 | 0.308 | 0.239 | 0.345 | 0.382 | 0.422 | 0.529 | 0.297 | 0.95 | 0.952 | 1.13 | 0.234 | 0.888
NCI-H1395 | 0.994 | 0.86 | 0.903 | 0.999 | 1.29 | 0.999 | 0.967 | 1.05 | 1.08 | 0.946 | 0.413 | 0.433 | 0.401 | 0.546 | 0.363 | 1.38 | 1.13 | 1.05 | 0.913 | 0.818
NCI-H2228 | 1.87 | 1.39 | 1.24 | 0.825 | 1.18 | 0.391 | 0.44 | 0.46 | 0.519 | 0.484 | 0.561 | 0.48 | 0.452 | 0.49 | 0.398 | 1.12 | 0.926 | 1.12 | 0.933 | 1.09
LU99A | 0.934 | 0.95 | 1.05 | 0.922 | 0.943 | 0.501 | 0.511 | 0.545 | 0.645 | 0.477 | 0.488 | 0.498 | 0.413 | 0.612 | 0.552 | 0.959 | 1 | 0.981 | 1.1 | 0.897
NCI-H1437 | 1.34 | 0.774 | 0.802 | 0.726 | 0.825 | 0.477 | 0.486 | 0.423 | 0.423 | 0.486 | 0.466 | 0.459 | 0.437 | 0.596 | 0.323 | 0.805 | 0.905 | 0.837 | 0.898 | 0.723
EKVX | 0.198 | 0.201 | 0.204 | 0.225 | 0.217 | 0.32 | 0.268 | 0.328 | 0.352 | 0.313 | 0.544 | 0.49 | 0.561 | 0.584 | 0.491 | 0.194 | 0.189 | 0.202 | 0.251 | 0.59

Reference: the supplement of paper PMC10307832
